For 22 compounds, EC50 results are on record in patent US20260374754A1, “N-((ISOQUINOLIN-6-YL)METHYL)-1H-PYRAZOLE-4-CARBOXAMIDE DERIVATIVES AS PLASMA KALLIKREIN INHIBITORS FOR THE TREATMENT OF HEREDITARY ANGIODEMA” (Takeda Pharmaceutical Company Limited, priority 2022, published 2026).

Structures are written as SMILES. Counter-ions that a name gives are not always drawn. Where only a bound is given, the exact number is not on record here.

Chain of human activated kallikrein enzyme (P03952 391-638 limits assumed): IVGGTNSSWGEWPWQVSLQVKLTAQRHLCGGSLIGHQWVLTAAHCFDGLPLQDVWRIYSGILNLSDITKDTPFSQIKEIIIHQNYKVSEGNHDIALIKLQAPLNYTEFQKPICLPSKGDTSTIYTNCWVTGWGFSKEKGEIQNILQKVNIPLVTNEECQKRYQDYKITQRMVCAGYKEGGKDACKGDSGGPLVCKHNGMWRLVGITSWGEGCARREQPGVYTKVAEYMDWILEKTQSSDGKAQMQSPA
Chain of human activated kallikrein enzyme (P03952 20-390 partner limits assumed): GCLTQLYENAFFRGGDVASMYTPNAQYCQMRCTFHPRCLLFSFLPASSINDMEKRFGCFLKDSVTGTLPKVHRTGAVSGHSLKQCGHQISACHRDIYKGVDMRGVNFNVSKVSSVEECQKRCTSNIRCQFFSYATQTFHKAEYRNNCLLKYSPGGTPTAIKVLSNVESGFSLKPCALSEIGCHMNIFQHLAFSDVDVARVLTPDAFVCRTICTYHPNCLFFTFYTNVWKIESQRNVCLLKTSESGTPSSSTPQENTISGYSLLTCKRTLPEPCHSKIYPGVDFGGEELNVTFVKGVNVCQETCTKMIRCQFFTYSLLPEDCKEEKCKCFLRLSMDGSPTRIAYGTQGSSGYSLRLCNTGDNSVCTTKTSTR

The assay addresses human activated kallikrein enzyme (Homo sapiens, UniProt P03952). The assay is described as follows: Inhibition of human activated plasma kallikrein, fluorogenic PFR-AMC substrate, 500 pM enzyme format. It is filed as biochemical. To be noted: 500 pM activated kallikrein; 300 μM PFR-AMC; 30 min preincubation; 10 min room temperature; pH 7.5; read-out: Primary Dose Response Assay: Average EC50. The gist of the method: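 Using fluorogenic PFR-AMC at 300 μM, cleavage by 500 pM human activated kallikrein ran 10 min at room temperature, read at 460 nm emission (380 nm excitation). Enzyme and compounds were first preincubated 30 min in 20 mM Tris pH 7.5, 150 mM NaCl, 1 mM EDTA, 0.1% PEG-400, 0.1% Triton X-100.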
As to `Cc1cc2c(N)nccc2c(C)c1CNC(=O)c1cnn(Cc2cn3ccc(C4CC4)cc3n2)c1` [Example 100, N-((1-amino-5,7-dimethylisoquinolin-6-yl)methyl)-1-((7-cyclopropylimidazo[1,2-a]pyridin-2-yl)methyl)-1H-pyrazole-4-carboxamide], the EC50 was < 0.001 µM. As to `Cc1cc2c(N)nccc2c(C)c1CNC(=O)c1cnn(Cc2ccc3ncccc3c2)c1` [Example 60, N-((1-amino-5,7-dimethylisoquinolin-6-yl)methyl)-1-(quinolin-6-ylmethyl)-1H-pyrazole-4-carboxamide], the concentration giving a half-maximal response (EC50) is < 0.001 µM. With `Cc1cc2c(N)nccc2c(C)c1CNC(=O)c1cnn(Cc2ccc3ncc(C4CC4)cc3c2)c1` [Example 28, N-((1-amino-5,7-dimethylisoquinolin-6-yl)methyl)-1-((3-cyclopropylquinolin-6-yl)methyl)-1H-pyrazole-4-carboxamide], the half-maximal effective concentration (EC50) was < 0.001 µM. As to `Cc1cc2c(N)nccc2c(C)c1CNc1cc(NCc2cc(C)c(OCc3ccccn3)c(C)c2)ncn1` [Example 353, N^4-((1-amino-5,7-dimethylisoquinolin-6-yl)methyl)-N^6-(3,5-dimethyl-4-(pyridin-2-ylmethoxy)benzyl)pyrimidine-4,6-diamine, formic acid salt], the half-maximal effective concentration (EC50) was 0.01 to 0.1 µM. Take `Cc1cc2c(N)nccc2c(C)c1CNC(=O)c1cnn(Cc2cn3ccccc3n2)c1` [Example 53, N-((1-amino-5,7-dimethylisoquinolin-6-yl)methyl)-1-(imidazo[1,2-a]pyridin-2-ylmethyl)-1H-pyrazole-4-carboxamide]: the 50% effective concentration (EC50) lay in the range of 0.001 to 0.01 µM. Next, `Cc1cc2c(N)nccc2c(C)c1CNC(=O)c1cnn(Cc2ccc3c(c2)nnn3C)c1` [Example 58, N-((1-amino-5,7-dimethylisoquinolin-6-yl)methyl)-1-((1-methyl-1H-benzo[d][1,2,3]triazol-5-yl)methyl)-1H-pyrazole-4-carboxamide]: 0.001 to 0.01 µM; `Cc1cc2c(N)nccc2c(C)c1CNC(=O)c1cnn(Cc2ccc(CCn3ccccc3=O)cc2)c1` [Example 49, N-((1-amino-5,7-dimethylisoquinolin-6-yl)methyl)-1-(4-(2-(2-oxopyridin-1(2H)-yl)ethyl)benzyl)-1H-pyrazole-4-carboxamide]: 0.001 to 0.01 µM; `Cc1cc2c(N)nccc2c(C)c1CNc1cc2nn(Cc3cn4cc(C5CC5)ccc4n3)cc2cn1` [Example 269, 6-(((2-((6-cyclopropylimidazo[1,2-a]pyridin-2-yl)methyl)-2H-pyrazolo[4,3-c]pyridin-6-yl)amino)methyl)-5,7-dimethylisoquinolin-1-amine]: 0.01 to 0.1 µM. Take `Cc1ccc2nc(Cn3cc(C(=O)NCc4c(C)cc5c(N(C(=O)OCc6ccccc6)C(=O)OCc6ccccc6)nccc5c4C)cn3)cn2c1` [Example 4, benzyl ((benzyloxy)carbonyl)(5,7-dimethyl-6-((1-((6-methylimidazo[1,2-a]pyridin-2-yl)methyl)-1H-pyrazole-4-carboxamido)methyl)isoquinolin-1-yl)carbamate]: the 50% effective concentration (EC50) was > 1 µM.

As for `Cc1ccc2ncc(COc3cc(NCc4c(C)cc5c(N)nccc5c4C)ncn3)cc2c1` [Example 372, 5,7-dimethyl-6-(((6-((6-methylquinolin-3-yl)methoxy)pyrimidin-4-yl)amino)methyl)isoquinolin-1-amine formic acid salt], the EC50 lay within 0.001 to 0.01 µM. Next, `Cc1cc2c(N)nccc2c(C)c1CNc1cc(OCc2ccc(Cn3cccn3)cc2)c2c(c1)C(=O)N(C)C2` [Example I-468, 4-((4-((1H-pyrazol-1-yl)methyl)benzyl)oxy)-6-(((1-amino-5,7-dimethylisoquinolin-6-yl)methyl)amino)-2-methylisoindolin-1-one]: 0.001 to 0.01 µM; `CCc1c(Cl)ccc2nc(Cn3cc(C(=O)NCc4c(C)cc5c(N)nccc5c4C)cn3)cn12` [Example 141, N-((1-amino-5,7-dimethylisoquinolin-6-yl)methyl)-1-((6-chloro-5-ethylimidazo[1,2-a]pyridin-2-yl)methyl)-1H-pyrazole-4-carboxamide]: < 0.001 µM. Next, `Cc1cc2c(N)nccc2c(C)c1CNC(=O)c1cnn(Cc2ccc(C(F)(F)C(=O)N(C)C)cc2)c1` [Example 23, N-((1-amino-5,7-dimethylisoquinolin-6-yl)methyl)-1-(4-(2-(dimethylamino)-1,1-difluoro-2-oxoethyl)benzyl)-1H-pyrazole-4-carboxamide]: 0.01 to 0.1 µM; `Cc1cc2c(N)nccc2c(C)c1CNC(=O)c1cn(Cc2ccc(CC(=O)N3CC4CC4C3)cc2)nc1F` (stereo not shown) [Example I-477, 1-(4-(2-(3-azabicyclo[3.1.0]hexan-3-yl)-2-oxoethyl)benzyl)-N-((1-amino-5,7-dimethylisoquinolin-6-yl)methyl)-3-fluoro-1H-pyrazole-4-carboxamide]: < 0.001 µM; `Cc1cc2c(N)nccc2c(C)c1CNc1cc(N(C)Cc2ccc(Cn3cccn3)cc2)cnn1` [Example 235, N5-(4-((1H-pyrazol-1-yl)methyl)benzyl)-N3-((1-amino-5,7-dimethylisoquinolin-6-yl)methyl)-N5-methylpyridazine-3,5-diamine]: < 0.001 µM. In the case of `Cc1cc2c(N)nccc2c(C)c1CNc1cc(NCc2ccccc2)cnn1` [Example 448, N^3-((1-amino-5,7-dimethylisoquinolin-6-yl)methyl)-N5-benzylpyridazine-3,5-diamine] it was 0.1 to 1 µM; in that of `Cc1cc2c(N)nccc2c(C)c1CNC(=O)c1cnn(Cc2ccc3cccc(Br)c3n2)c1` [Example 159, N-((1-amino-5,7-dimethylisoquinolin-6-yl)methyl)-1-((8-bromoquinolin-2-yl)methyl)-1H-pyrazole-4-carboxamide], 0.01 to 0.1 µM; in that of `Cc1cc2c(N)nccc2c(C)c1CNc1cc(OCc2ccc(Cn3cccn3)cc2)ccn1` [Example I-454, 6-(((4-((4-((1H-pyrazol-1-yl)methyl)benzyl)oxy)pyridin-2-yl)amino)methyl)-5,7-dimethylisoquinolin-1-amine], 0.001 to 0.01 µM. With `Cc1cc2c(N)nccc2c(C)c1CNc1cc(NCc2ccc3ccccc3c2)ncn1` [Example 233, N4-((1-amino-5,7-dimethylisoquinolin-6-yl)methyl)-N6-(naphthalen-2-ylmethyl)pyrimidine-4,6-diamine], the EC50 was 0.01 to 0.1 µM. As to `Cc1cc2c(N)nccc2c(C)c1CNc1cc(OCc2nc3cc(C4CC4)ccc3s2)ncn1` [Example 282, 6-(((6-((5-cyclopropylbenzo[d]thiazol-2-yl)methoxy)pyrimidin-4-yl)amino)methyl)-5,7-dimethylisoquinolin-1-amine], the concentration giving a half-maximal response (EC50) was 0.1 to 1 µM.

Consider `Cc1cc2c(N)nccc2c(C)c1CNc1cc(NCc2ccc(Cn3ccccc3=O)cc2)ncn1` [Example 237, 1-(4-(((6-(((1-amino-5,7-dimethylisoquinolin-6-yl)methyl)amino)pyrimidin-4-yl)amino)methyl)benzyl)pyridin-2(1H)-one], for which the half-maximal effective concentration (EC50) was < 0.001 µM. In the case of `Cc1cc2c(N)nccc2c(C)c1CNC(=O)c1cn(C(C)c2ccc3ncc(Cl)cc3c2)nn1` (stereo not shown) [Example 200, N-((1-amino-5,7-dimethylisoquinolin-6-yl)methyl)-1-(1-(3-chloroquinolin-6-yl)ethyl)-1H-1,2,3-triazole-4-carboxamide] it was 0.001 to 0.01 µM.

A word on the EC50: it is the midpoint of the concentration-response curve.
